Results: ChEMBL document CHEMBL1201862, “PubChem BioAssay data set” (2004)
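Growth conditions: 96-well plates. Treatment: test compound, 48 hours, 5 concentrations. Analysis: linear interpolation between bracketing concentrations; unreached endpoints set to highest concentration. Here, GI50 denotes the concentration required for 50% inhibition of growth.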 Activity calls are given as the source filed them. No stated cut-off is given here; in the data, active = GI50 up to about 1.1 µM and inactive = higher. Residues, ends and D or L forms follow the SMILES beside them. *: point of attachment. Bn = c1ccc(C*)cc1

How the values were obtained:
Assay in all cases: growth of human tumour cells (NCI), 48 h
A498 = test system: A498
CAKI-1 = test system: CAKI-1
DU-145 = test system: DU-145
HT-29 = test system: HT-29
KM12 = test system: KM12
M14 = test system: M14
MCF7 = test system: MCF7
MDA-N = test system: MDA-N
NCI-H23 = test system: NCI-H23
RXF 393 = test system: RXF 393
SK-MEL-28 = test system: SK-MEL-28
SN12C = test system: SN12C
SW-620 = test system: SW-620
T47D = test system: T47D
TK-10 = test system: TK-10
EKVX = test system: EKVX
UACC-257 = test system: UACC-257
HL-60 = test system: HL-60
Malme-3M = test system: Malme-3M
NCI-H522 = test system: NCI-H522

SMILES	GI50 (A498)	GI50 (CAKI-1)	GI50 (DU-145)	GI50 (HT-29)	GI50 (KM12)	GI50 (M14)	GI50 (MCF7)	GI50 (MDA-N)	GI50 (NCI-H23)	GI50 (RXF 393)	GI50 (SK-MEL-28)	GI50 (SN12C)	GI50 (SW-620)	GI50 (T47D)	GI50 (TK-10)	GI50 (EKVX)	GI50 (UACC-257)	GI50 (HL-60)	GI50 (Malme-3M)	GI50 (NCI-H522)
CNC(=O)CCNC(=O)CCC(=O)OC	> 100 µM (inactive)	> 100 µM (inactive)	> 100 µM (inactive)	> 100 µM (inactive)	> 100 µM (inactive)	> 100 µM (inactive)	> 100 µM (inactive)	> 100 µM (inactive)	> 100 µM (inactive)	> 100 µM (inactive)	> 100 µM (inactive)	> 100 µM (inactive)	> 100 µM (inactive)	> 100 µM (inactive)	> 100 µM (inactive)					
O=C(NNc1cn[nH]c(=O)c1Cl)/C(=C/c1ccc2c(c1)OCO2)NC(=O)c1ccccc1		22.9 µM (inactive)	92 µM (inactive)	41.5 µM (inactive)	34.7 µM (inactive)	61.8 µM (inactive)	41.5 µM (inactive)	44.7 µM (inactive)	42.5 µM (inactive)		74.3 µM (inactive)	50 µM (inactive)	41.2 µM (inactive)	73.5 µM (inactive)	34 µM (inactive)	19.1 µM (inactive)	> 100 µM (inactive)			
Oc1cc(-c2cccc(Cl)c2)nc2cc3c(cc12)OCO3	0.371 µM (active)		0.284 µM (active)	2 µM (inactive)	0.24 µM (active)	0.179 µM (active)	2.83 µM (inactive)	0.0255 µM (active)	0.951 µM (active)			0.912 µM (active)	0.351 µM (active)	10.6 µM (inactive)	6.31 µM (inactive)		0.366 µM (active)	0.157 µM (active)	0.138 µM (active)	0.334 µM (active)
Brc1cc2nn(-c3ccccc3)nc2c2nonc12		> 100 µM (inactive)	> 100 µM (inactive)	> 100 µM (inactive)	> 100 µM (inactive)	> 100 µM (inactive)	> 100 µM (inactive)	> 100 µM (inactive)	> 100 µM (inactive)		> 100 µM (inactive)	> 100 µM (inactive)	> 100 µM (inactive)	28.4 µM (inactive)	> 100 µM (inactive)	> 100 µM (inactive)	> 100 µM (inactive)	> 100 µM (inactive)	> 100 µM (inactive)	> 100 µM (inactive)
O=[N+]([O-])C(C(Cl)=C(Cl)Cl)=C(N1CCCCC1)N1CCCCC1	> 100 µM (inactive)	58.6 µM (inactive)	> 100 µM (inactive)	> 100 µM (inactive)	> 100 µM (inactive)	> 100 µM (inactive)	90.4 µM (inactive)	68.2 µM (inactive)	> 100 µM (inactive)	63.1 µM (inactive)	> 100 µM (inactive)	> 100 µM (inactive)	> 100 µM (inactive)	45.6 µM (inactive)	> 100 µM (inactive)	> 100 µM (inactive)	63.4 µM (inactive)	33.4 µM (inactive)	39.5 µM (inactive)	
NC1CC(=O)c2cc(Cl)sc21 (configuration not stated)		> 100 µM (inactive)	> 100 µM (inactive)	> 100 µM (inactive)	> 100 µM (inactive)	> 100 µM (inactive)		> 100 µM (inactive)	> 100 µM (inactive)	> 100 µM (inactive)	> 100 µM (inactive)	> 100 µM (inactive)	> 100 µM (inactive)	> 100 µM (inactive)	> 100 µM (inactive)	> 100 µM (inactive)	> 100 µM (inactive)	> 100 µM (inactive)	> 100 µM (inactive)	> 100 µM (inactive)
C=C1C(=O)O[C@@H]2[C@H]1CC[C@H](C)[C@]1(O)CCC(=O)[C@@]21C [CORONOPILIN]				> 10 µM (inactive)	> 10 µM (inactive)		> 10 µM (inactive)	> 10 µM (inactive)	4.16 µM (inactive)	> 10 µM (inactive)	> 10 µM (inactive)	> 10 µM (inactive)	> 10 µM (inactive)	> 10 µM (inactive)	> 10 µM (inactive)	> 10 µM (inactive)		3.66 µM (inactive)	> 10 µM (inactive)	
CN(C)CCNc1ccc([N+](=O)[O-])c2nc3ccccc3c(N)c12		1.84 µM (inactive)	0.804 µM (active)	0.318 µM (active)	0.381 µM (active)	0.574 µM (active)	> 10 µM (inactive)	0.585 µM (active)	0.889 µM (active)	1.05 µM (active)	3.83 µM (inactive)	0.783 µM (active)	0.297 µM (active)	0.48 µM (active)	2.53 µM (inactive)	0.607 µM (active)	2.18 µM (inactive)	0.741 µM (active)	0.443 µM (active)	
O=c1oc2ccc3ccccc3c2cc1-c1cn2ccccc2n1		11.8 µM (inactive)	> 100 µM (inactive)	26.5 µM (inactive)	57.7 µM (inactive)	> 100 µM (inactive)		> 100 µM (inactive)	> 100 µM (inactive)	> 100 µM (inactive)	> 100 µM (inactive)	48.1 µM (inactive)	> 100 µM (inactive)	> 100 µM (inactive)	67.8 µM (inactive)	30.5 µM (inactive)	> 100 µM (inactive)	> 100 µM (inactive)		26.3 µM (inactive)
COc1cc(C#CC(=O)OC/C=C/c2ccc3c(c2)OCO3)cc(OC)c1OC	5.53 µM (inactive)	22.1 µM (inactive)	42.6 µM (inactive)	> 100 µM (inactive)	30.4 µM (inactive)	24 µM (inactive)	19.5 µM (inactive)	18.5 µM (inactive)	25.2 µM (inactive)	12.3 µM (inactive)	> 100 µM (inactive)	31.2 µM (inactive)	27.5 µM (inactive)	59.6 µM (inactive)	21.4 µM (inactive)	31.6 µM (inactive)	26.8 µM (inactive)	36.5 µM (inactive)	20.7 µM (inactive)	
COC(=O)C(CC(C)C)NC(=O)C(N)Cc1ccc(OCc2ccccc2)cc1 (configuration not stated) (H-Tyr(Bn)-Leu-OMe; configuration not given here)	> 10 µM (inactive)	> 10 µM (inactive)	> 10 µM (inactive)	> 10 µM (inactive)	> 10 µM (inactive)	> 10 µM (inactive)		> 10 µM (inactive)	> 10 µM (inactive)	> 10 µM (inactive)	> 10 µM (inactive)	> 10 µM (inactive)	> 10 µM (inactive)	> 10 µM (inactive)	> 10 µM (inactive)	> 10 µM (inactive)	> 10 µM (inactive)	2.54 µM (inactive)	2.9 µM (inactive)	> 10 µM (inactive)
CC1(C)O[C@@H](CP(c2cccc3ccccc23)c2cccc3ccccc23)[C@H](CP(c2cccc3ccccc23)c2cccc3ccccc23)O1		> 100 µM (inactive)	> 100 µM (inactive)	> 100 µM (inactive)	> 100 µM (inactive)	> 100 µM (inactive)	> 100 µM (inactive)	> 100 µM (inactive)	> 100 µM (inactive)	> 100 µM (inactive)	> 100 µM (inactive)	> 100 µM (inactive)	> 100 µM (inactive)	> 100 µM (inactive)	> 100 µM (inactive)	> 100 µM (inactive)	> 100 µM (inactive)			> 100 µM (inactive)
COc1cc(N(CCC#N)CCC#N)ccc1C(=N/NC(=O)c1cc(Br)ccc1O)/N=N/c1ccc(C)cc1		27.9 µM (inactive)	27.4 µM (inactive)	32.6 µM (inactive)	17 µM (inactive)	28.3 µM (inactive)	17.4 µM (inactive)	30.9 µM (inactive)	17 µM (inactive)	19.3 µM (inactive)	25.1 µM (inactive)	17.3 µM (inactive)	29.7 µM (inactive)	4.36 µM (inactive)	23.9 µM (inactive)	21.7 µM (inactive)	25.1 µM (inactive)	15.4 µM (inactive)	29.3 µM (inactive)	18 µM (inactive)
N#Cc1c(SCc2ccccc2)nc(-c2ccccc2)[nH]c1=S	27.3 µM (inactive)	33.3 µM (inactive)	42 µM (inactive)	28.4 µM (inactive)	17.4 µM (inactive)	29.9 µM (inactive)	26.1 µM (inactive)	22.6 µM (inactive)	18.2 µM (inactive)	19.2 µM (inactive)	22.3 µM (inactive)	32.5 µM (inactive)	25.6 µM (inactive)	22.4 µM (inactive)	32.7 µM (inactive)	31.5 µM (inactive)	35.2 µM (inactive)	30.6 µM (inactive)	37.2 µM (inactive)	
O=CCC1CCCCC1	> 100 µM (inactive)	> 100 µM (inactive)			88.7 µM (inactive)	> 100 µM (inactive)		> 100 µM (inactive)	> 100 µM (inactive)	> 100 µM (inactive)	> 100 µM (inactive)	> 100 µM (inactive)	> 100 µM (inactive)	> 100 µM (inactive)		> 100 µM (inactive)	> 100 µM (inactive)		> 100 µM (inactive)	> 100 µM (inactive)
O=C1C=CC2(O[C@H](c3ccccc3)[C@@H](c3ccccc3)O2)C(SC(=O)c2ccccc2)C1 (some centres not stated)	7.71 µM (inactive)	1.67 µM (inactive)	3.34 µM (inactive)	2.03 µM (inactive)	2.27 µM (inactive)	1.33 µM (inactive)	0.371 µM (active)	1.43 µM (inactive)	1.63 µM (inactive)	0.182 µM (active)	1.79 µM (inactive)	2.33 µM (inactive)	0.288 µM (active)	2.06 µM (inactive)	1.68 µM (inactive)	0.182 µM (active)	1.79 µM (inactive)	1.84 µM (inactive)	2.27 µM (inactive)	
